Experimental data taken from patent US10435399B2, “HDAC6 inhibitory heterocyclic compound” (TAKEDA PHARMACEUTICAL COMPANY LIMITED, priority 2017, dated 2019).

The compounds below were run against T1, HDAC6 enzyme (Homo sapiens, UniProt Q9UBN7) (assay: HDAC6 enzyme inhibitory activity (HDAC-Glo I/II Assay kit)). Details: 10 μM; wells without enzyme = 100% inhibition; read-out: HDAC6 inhibitory rate (%) (10 μM).
T1 construct: transducing full length HDAC6 gene into Sf-9 insect cells; GST; purchased SignalChem; host or cells: Sf-9 insect cells
T1 sequence (Q9UBN7 1-1215): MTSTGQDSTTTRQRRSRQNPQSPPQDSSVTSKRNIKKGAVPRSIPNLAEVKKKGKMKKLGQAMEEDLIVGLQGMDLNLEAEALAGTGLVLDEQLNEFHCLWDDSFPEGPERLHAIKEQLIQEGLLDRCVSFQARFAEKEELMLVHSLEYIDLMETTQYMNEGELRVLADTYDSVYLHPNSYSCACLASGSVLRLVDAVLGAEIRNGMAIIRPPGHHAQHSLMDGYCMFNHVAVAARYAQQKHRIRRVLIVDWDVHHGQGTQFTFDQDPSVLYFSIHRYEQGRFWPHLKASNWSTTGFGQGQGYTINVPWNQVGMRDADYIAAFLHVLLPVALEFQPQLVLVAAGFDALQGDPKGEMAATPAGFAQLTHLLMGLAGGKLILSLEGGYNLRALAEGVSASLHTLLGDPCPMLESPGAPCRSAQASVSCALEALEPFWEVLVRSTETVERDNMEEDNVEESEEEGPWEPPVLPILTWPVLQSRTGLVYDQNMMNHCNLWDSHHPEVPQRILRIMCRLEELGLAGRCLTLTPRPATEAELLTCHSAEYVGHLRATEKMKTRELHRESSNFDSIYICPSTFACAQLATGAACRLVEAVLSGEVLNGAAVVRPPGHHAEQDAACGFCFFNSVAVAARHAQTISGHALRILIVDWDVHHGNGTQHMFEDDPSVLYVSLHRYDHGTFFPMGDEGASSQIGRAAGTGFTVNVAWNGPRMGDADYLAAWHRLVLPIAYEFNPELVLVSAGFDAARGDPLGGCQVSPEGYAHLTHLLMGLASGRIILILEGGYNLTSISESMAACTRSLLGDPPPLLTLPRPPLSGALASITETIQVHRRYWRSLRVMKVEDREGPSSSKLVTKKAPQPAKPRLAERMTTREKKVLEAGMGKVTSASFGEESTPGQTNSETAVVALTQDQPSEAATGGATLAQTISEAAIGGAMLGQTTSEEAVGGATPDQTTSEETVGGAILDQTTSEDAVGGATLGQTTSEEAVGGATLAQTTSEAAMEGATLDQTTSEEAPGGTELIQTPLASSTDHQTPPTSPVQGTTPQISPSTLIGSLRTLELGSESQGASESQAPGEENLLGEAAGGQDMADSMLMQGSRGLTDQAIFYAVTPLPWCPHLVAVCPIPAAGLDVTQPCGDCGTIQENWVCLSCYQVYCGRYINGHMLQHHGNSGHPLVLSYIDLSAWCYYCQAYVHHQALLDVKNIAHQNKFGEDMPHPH
Format: biochemical
Method in brief: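 Inhibition is calculated as relative activity, taking luminescence in enzyme-free wells as complete inhibition. The enzyme, full-length and GST-purified after Sf-9 expression, was exposed to compound for 60 min at room temperature before a 20 min HDAC-Glo reaction.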
An inhibition at 10 µM of 97% was found for `CCC(=O)N[C@@H]1CCCC[C@H]1N1C(=O)c2ccc(-c3nnc(C(F)F)o3)cc2C1=O` [Example 166, N-((1R,2R)-2-(5-(5-(difluoromethyl)-1,3,4-oxadiazol-2-yl)-1,3-dioxo-1,3-dihydro-2H-isoindol-2-yl)cyclohexyl)propanamide] in this work.
An inhibition at 10 µM of 100% was found for `CC(C)(C)OC(=O)N[C@@H]1COCC[C@H]1N1Cc2c(F)cc(-c3nnc(C(F)F)o3)cc2C1=O` [Example 167, tert-butyl ((3S,4R)-4-(6-(5-(difluoromethyl)-1,3,4-oxadiazol-2-yl)-4-fluoro-1-oxo-1,3-dihydro-2H-isoindol-2-yl)tetrahydro-2H-pyran-3-yl)carbamate] in this work.
An inhibition at 10 µM of 100% was found for `CC(C)(C)OC(=O)N1CCOC[C@@H]1CN1Cc2c(F)cc(-c3nnc(C(F)F)o3)cc2C1=O` [Example 168, tert-butyl (3S)-3-((6-(5-(difluoromethyl)-1,3,4-oxadiazol-2-yl)-4-fluoro-1-oxo-1,3-dihydro-2H-isoindol-2-yl)methyl)morpholine-4-carboxylate] in this work.
An inhibition at 10 µM of 101% was found for `N#Cc1cccc(-c2ccccc2N2Cc3ccc(-c4nnc(C(F)F)o4)cc3C2=O)c1` [Example 169, 2′-(6-(5-(difluoromethyl)-1,3,4-oxadiazol-2-yl)-1-oxo-1,3-dihydro-2H-isoindol-2-yl)biphenyl-3-carbonitrile] in this work.
An inhibition at 10 µM of 102% was found for `COc1cccc(-c2ccccc2N2Cc3ccc(-c4nnc(C(F)F)o4)cc3C2=O)c1` [Example 170, 6-(5-(difluoromethyl)-1,3,4-oxadiazol-2-yl)-2-(3′-methoxybiphenyl-2-yl)isoindolin-1-one] in this work.
An inhibition at 10 µM of 101% was found for `O=C1c2cc(-c3nnc(C(F)F)o3)ccc2CN1c1ccccc1-c1cccc(C(F)(F)F)c1` [Example 171, 6-(5-(difluoromethyl)-1,3,4-oxadiazol-2-yl)-2-(3′-(trifluoromethyl)biphenyl-2-yl)isoindolin-1-one] in this work.
An inhibition at 10 µM of 100% was found for `CS(=O)(=O)c1cccc(-c2ccccc2N2Cc3ccc(-c4nnc(C(F)F)o4)cc3C2=O)c1` [Example 172, 6-(5-(difluoromethyl)-1,3,4-oxadiazol-2-yl)-2-(3′-(methylsulfonyl)biphenyl-2-yl)isoindolin-1-one] in this work.
An inhibition at 10 µM of 91% was found for `N[C@@H]1CCCC[C@H]1N1Cc2c(F)cc(-c3nnc(C(F)F)o3)cc2C1=O` [Example 173, 2-((1R,2R)-2-aminocyclohexyl)-6-(5-(difluoromethyl)-1,3,4-oxadiazol-2-yl)-4-fluoroisoindolin-1-one] in this work.
An inhibition at 10 µM of 102% was found for `O=C1c2cc(-c3nnc(C(F)F)o3)cc(F)c2CN1[C@@H]1COCC[C@H]1NC(=O)C(F)(F)C(F)(F)F` [Example 174, N-((3S,4R)-3-(6-(5-(difluoromethyl)-1,3,4-oxadiazol-2-yl)-4-fluoro-1-oxo-1,3-dihydro-2H-isoindol-2-yl)tetrahydro-2H-pyran-4-yl)-2,2,3,3,3-pentafluoropropanamide] in this work.
An inhibition at 10 µM of 100% was found for `CC(C)(C(=O)N[C@@H]1CCOC[C@H]1N1Cc2c(F)cc(-c3nnc(C(F)F)o3)cc2C1=O)C(F)(F)F` [Example 175, N-((3S,4R)-3-(6-(5-(difluoromethyl)-1,3,4-oxadiazol-2-yl)-4-fluoro-1-oxo-1,3-dihydro-2H-isoindol-2-yl)tetrahydro-2H-pyran-4-yl)-3,3,3-trifluoro-2,2-dimethylpropanamide] in this work.
An inhibition at 10 µM of 100% was found for `O=C1c2cc(-c3nnc(C(F)F)o3)cc(F)c2CN1[C@@H]1COCC[C@H]1NC(=O)C1(C(F)(F)F)CC1` [Example 176, N-((3S,4R)-3-(6-(5-(difluoromethyl)-1,3,4-oxadiazol-2-yl)-4-fluoro-1-oxo-1,3-dihydro-2H-isoindol-2-yl)tetrahydro-2H-pyran-4-yl)-1-(trifluoromethyl)cyclopropanecarboxamide] in this work.
An inhibition at 10 µM of 97% was found for `O=C1CCCN1[C@@H]1CCCC[C@H]1N1Cc2ncc(-c3nnc(C(F)F)o3)cc2C1=O` [Example 177, 3-(5-(difluoromethyl)-1,3,4-oxadiazol-2-yl)-6-((1R,2R)-2-(2-oxopyrrolidin-1-yl)cyclohexyl)-6,7-dihydro-5H-pyrrolo[3,4-b]pyridin-5-one] in this work.
An inhibition at 10 µM of 41% was found for `CC1(C)OB(c2ccccc2N2Cc3ccc(-c4nnc(C(F)F)o4)cc3C2=O)OC1(C)C` [Example 178, 6-(5-(difluoromethyl)-1,3,4-oxadiazol-2-yl)-2-(2-(4,4,5,5-tetramethyl-1,3,2-dioxaborolan-2-yl)phenyl)isoindolin-1-one] in this work.
An inhibition at 10 µM of 100% was found for `O=C1c2ccccc2CN1[C@@H]1CCCC[C@H]1N1Cc2ncc(-c3nnc(C(F)F)o3)cc2C1=O` [Example 179, 3-(5-(difluoromethyl)-1,3,4-oxadiazol-2-yl)-6-((1R,2R)-2-(1-oxo-1,3-dihydro-2H-isoindol-2-yl)cyclohexyl)-6,7-dihydro-5H-pyrrolo[3,4-b]pyridin-5-one] in this work.
An inhibition at 10 µM of 100% was found for `O=C(N[C@@H]1CCOC[C@H]1N1Cc2c(F)cc(-c3nnc(C(F)F)o3)cc2C1=O)c1ccccc1Cl` [Example 180, 2-chloro-N-((3S,4R)-3-(6-(5-(difluoromethyl)-1,3,4-oxadiazol-2-yl)-4-fluoro-1-oxo-1,3-dihydro-2H-isoindol-2-yl)tetrahydro-2H-pyran-4-yl)benzamide] in this work.
An inhibition at 10 µM of 97% was found for `O=C(N[C@@H]1CCOC[C@H]1N1Cc2c(F)cc(-c3nnc(C(F)F)o3)cc2C1=O)c1cccc(Cl)c1` [Example 181, 3-chloro-N-((3S,4R)-3-(6-(5-(difluoromethyl)-1,3,4-oxadiazol-2-yl)-4-fluoro-1-oxo-1,3-dihydro-2H-isoindol-2-yl)tetrahydro-2H-pyran-4-yl)benzamide] in this work.
An inhibition at 10 µM of 99% was found for `CCC(=O)N[C@@H]1CCCC[C@H]1N1Cc2c(F)cc(-c3nnc(C(F)F)o3)cc2C1=O` [Example 182, N-((1R,2R)-2-(6-(5-(difluoromethyl)-1,3,4-oxadiazol-2-yl)-4-fluoro-1-oxo-1,3-dihydro-2H-isoindol-2-yl)cyclohexyl)propanamide] in this work.
An inhibition at 10 µM of 99% was found for `O=C1c2cc(-c3nnc(C(F)F)o3)cc(F)c2CN1[C@@H]1CCCC[C@H]1NC(=O)C(F)(F)F` [Example 183, N-((1R,2R)-2-(6-(5-(difluoromethyl)-1,3,4-oxadiazol-2-yl)-4-fluoro-1-oxo-1,3-dihydro-2H-isoindol-2-yl)cyclohexyl)-2,2,2-trifluoroacetamide] in this work.
An inhibition at 10 µM of 102% was found for `CC(F)(F)C(=O)N[C@@H]1CCCC[C@H]1N1Cc2c(F)cc(-c3nnc(C(F)F)o3)cc2C1=O` [Example 184, N-((1R,2R)-2-(6-(5-(difluoromethyl)-1,3,4-oxadiazol-2-yl)-4-fluoro-1-oxo-1,3-dihydro-2H-isoindol-2-yl)cyclohexyl)-2,2-difluoropropanamide] in this work.
An inhibition at 10 µM of 100% was found for `O=C(N[C@@H]1CCCC[C@H]1N1Cc2c(F)cc(-c3nnc(C(F)F)o3)cc2C1=O)[C@@H]1CC1(F)F` [Example 185, (1S)-N-((1R,2R)-2-(6-(5-(difluoromethyl)-1,3,4-oxadiazol-2-yl)-4-fluoro-1-oxo-1,3-dihydro-2H-isoindol-2-yl)cyclohexyl)-2,2-difluorocyclopropanecarboxamide] in this work.
An inhibition at 10 µM of 101% was found for `O=C1c2cc(-c3nnc(C(F)F)o3)cnc2CN1[C@@H]1CCCC[C@H]1N1C(=O)c2ccccc2C1=O` [Example 186, 2-((1R,2R)-2-(3-(5-(difluoromethyl)-1,3,4-oxadiazol-2-yl)-5-oxo-5,7-dihydro-6H-pyrrolo[3,4-b]pyridin-6-yl)cyclohexyl)-H-isoindole-1,3(2H)-dione] in this work.
